In ChEMBL document CHEMBL3596127, “Design, synthesis and molecular docking of novel bipyrazolyl thiazolone scaffold as a new class of antibacterial agents” (Medchemcomm, 2014):
≈ marks a conversion by molar mass, not a printed value.

Tests used:
Bacillus spizizenii = experiment: Antibacterial activity against Bacillus subtilis ATCC 6633 after 24 hrs by MTT assay; type: functional; conditions: ATCC 6633, 24 h
[1] = Hemolytic activity in RBC (unknown origin); type: ADME, cell-based; conditions: erythrocyte
Escherichia coli = experiment: Antibacterial activity against Escherichia coli ATCC 35218 after 24 hrs by MTT assay; type: functional; conditions: ATCC 35218, 24 h
[2] = Inhibition of full-length N-terminal His-tagged Escherichia coli FabH expressed in Escherichia coli BL21 (DE3) using acetyl-CoA/[3H]-acetyl-CoA/holo-ACP as substrate by liquid scintillation counting analysis
Pseudomonas aeruginosa = experiment: Antibacterial activity against Pseudomonas aeruginosa ATCC 13525 after 24 hrs by MTT assay; type: functional; conditions: ATCC 13525, 24 h
Staphylococcus aureus = experiment: Antibacterial activity against Staphylococcus aureus ATCC 6538 after 24 hrs by MTT assay; type: functional; conditions: ATCC 6538, 24 h

Row | SMILES | MIC (Bacillus spizizenii) | LC30 [1] | MIC (Escherichia coli) | IC50 [2] | MIC (Pseudomonas aeruginosa) | MIC (Staphylococcus aureus)
1 | Cc1nn(-c2ccccc2)c(-n2nnc3ccccc32)c1C1CC(c2cccs2)=NN1C1=NC(=O)/C(=C/c2ccco2)S1 (configuration not stated) | > 50 µg/mL | > 10000 µg/mL | > 50 µg/mL | 21.9 µM | 6.25 µg/mL (≈ 10.4 µM) | 50 µg/mL (≈ 83 µM)
2 | Cc1nn(-c2ccccc2)c(-n2cnc3ccccc32)c1C1CC(c2cccs2)=NN1C1=NC(=O)/C(=C/c2c[nH]c3ccccc23)S1 (configuration not stated) | 12.5 µg/mL (≈ 19.2 µM) | > 10000 µg/mL | 3.13 µg/mL (≈ 4.81 µM) | 2.5 µM | 12.5 µg/mL (≈ 19.2 µM) | 50 µg/mL (≈ 76.8 µM)
3 | Cc1nn(-c2ccccc2)c(-n2nnc3ccccc32)c1C1CC(c2cccs2)=NN1C1=NC(=O)/C(=C/c2cccs2)S1 (configuration not stated) | 12.5 µg/mL (≈ 20.2 µM) | > 10000 µg/mL | 50 µg/mL (≈ 80.8 µM) | 17.5 µM | 6.25 µg/mL (≈ 10.1 µM) | > 50 µg/mL
4 | Cc1nn(-c2ccccc2)c(-n2ccnc2)c1C1CC(c2cccs2)=NN1C1=NC(=O)/C(=C/c2cccs2)S1 (configuration not stated) | > 50 µg/mL | > 10000 µg/mL | > 50 µg/mL | 11.3 µM | 25 µg/mL (≈ 44 µM) | 25 µg/mL (≈ 44 µM)
5 | Cc1nn(-c2ccccc2)c(-n2cncn2)c1C1CC(c2cccs2)=NN1C1=NC(=O)/C(=C/c2ccco2)S1 (configuration not stated) | 25 µg/mL (≈ 45.2 µM) | > 10000 µg/mL | 50 µg/mL (≈ 90.5 µM) | 26.1 µM | 50 µg/mL (≈ 90.5 µM) | > 50 µg/mL
6 | CC1(C)S[C@@H]2[C@H](NC(=O)Cc3ccccc3)C(=O)N2[C@H]1C(=O)O [PENICILLIN G] | 1.56 µg/mL (≈ 4.67 µM) |  | 3.13 µg/mL (≈ 9.36 µM) |  | 6.25 µg/mL (≈ 18.7 µM) | 6.25 µg/mL (≈ 18.7 µM)
7 | NC[C@H]1O[C@H](O[C@H]2[C@H](O)[C@@H](O[C@H]3O[C@H](CO)[C@@H](O)[C@H](N)[C@H]3O)[C@H](N)C[C@@H]2N)[C@H](N)[C@@H](O)[C@@H]1O [BEKANAMYCIN] | 0.39 µg/mL (≈ 0.807 µM) | > 10000 µg/mL | 1.56 µg/mL (≈ 3.23 µM) | 6.3 µM | 3.13 µg/mL (≈ 6.47 µM) | 1.56 µg/mL (≈ 3.23 µM)
8 | Cc1nn(-c2ccccc2)c(-n2cnc3ccccc32)c1C1CC(c2cccs2)=NN1C1=NC(=O)/C(=C/c2cccs2)S1 (configuration not stated) | 3.13 µg/mL (≈ 5.07 µM) | > 10000 µg/mL | 25 µg/mL (≈ 40.5 µM) | 9.1 µM | 25 µg/mL (≈ 40.5 µM) | 25 µg/mL (≈ 40.5 µM)
9 | Cc1nn(-c2ccccc2)c(-n2cnc3ccccc32)c1C1CC(c2cccs2)=NN1C1=NC(=O)/C(=C/c2ccco2)S1 (configuration not stated) | 6.25 µg/mL (≈ 10.4 µM) | > 10000 µg/mL | > 50 µg/mL | 8.5 µM | > 50 µg/mL | 12.5 µg/mL (≈ 20.8 µM)
10 | Cc1nn(-c2ccccc2)c(-n2nnc3ccccc32)c1C1CC(c2cccs2)=NN1C1=NC(=O)/C(=C/c2c[nH]c3ccccc23)S1 (configuration not stated) | > 50 µg/mL | > 10000 µg/mL | 3.13 µg/mL (≈ 4.8 µM) | 3.1 µM | 6.25 µg/mL (≈ 9.59 µM) | 25 µg/mL (≈ 38.4 µM)
11 | Cc1nn(-c2ccccc2)c(-n2ccnc2)c1C1CC(c2cccs2)=NN1C1=NC(=O)/C(=C/c2c[nH]c3ccccc23)S1 (configuration not stated) | 25 µg/mL (≈ 41.6 µM) | > 10000 µg/mL | 6.25 µg/mL (≈ 10.4 µM) | 3.9 µM | 3.13 µg/mL (≈ 5.21 µM) | 50 µg/mL (≈ 83.2 µM)
12 | Cc1nn(-c2ccccc2)c(-n2cncn2)c1C1CC(c2cccs2)=NN1C1=NC(=O)/C(=C/c2cccs2)S1 (configuration not stated) | 25 µg/mL (≈ 44 µM) | > 10000 µg/mL | 25 µg/mL (≈ 44 µM) | 15.6 µM | 50 µg/mL (≈ 87.9 µM) | 6.25 µg/mL (≈ 11 µM)
13 | Cc1nn(-c2ccccc2)c(-n2ccnc2)c1C1CC(c2cccs2)=NN1C1=NC(=O)/C(=C/c2ccco2)S1 (configuration not stated) | 25 µg/mL (≈ 45.3 µM) | > 10000 µg/mL | 25 µg/mL (≈ 45.3 µM) | 12.8 µM | > 50 µg/mL | 6.25 µg/mL (≈ 11.3 µM)
14 | Cc1nn(-c2ccccc2)c(-n2cncn2)c1C1CC(c2cccs2)=NN1C1=NC(=O)/C(=C/c2c[nH]c3ccccc23)S1 (configuration not stated) | 25 µg/mL (≈ 41.5 µM) | > 10000 µg/mL | 12.5 µg/mL (≈ 20.8 µM) | 4.7 µM | > 50 µg/mL | > 50 µg/mL
